ChEMBL document CHEMBL4800723, “Data for DCP probe BI-1942” (2021)
Calls of active or inactive are those of the source. The calls are words filed in the database; no cut-off is given here.

Assays:
[1] = molecular target: 5-hydroxytryptamine receptor 1D (Homo sapiens, UniProt P28221); experiment: GPCRScan assay: inhibition of 5-HT1D; set-up: radioligand conc. used [nm] 1.0 – 2.0, parental cells HEKT
Chymase = Chymase (Homo sapiens, UniProt P23946); experiment: Angiotensin II formation by CMA1 in human plasma; assay type: cell-free
[2] = molecular target: Prostaglandin G/H synthase 1 (Homo sapiens) (UniProt P23219); experiment: COX-1 Eurofins SafetyScreen44 (BI); settings: Compound concentration 10.0 uM
[3] = molecular target: 5-hydroxytryptamine receptor 2A (Homo sapiens) (UniProt P28223); experiment: 5HT2AH_AGON Eurofins SafetyScreen44 (BI); settings: filed as agonist, Compound concentration 10.0 uM
5-hydroxytryptamine receptor 2A (Homo sapiens), sequence (P28223 whole entry): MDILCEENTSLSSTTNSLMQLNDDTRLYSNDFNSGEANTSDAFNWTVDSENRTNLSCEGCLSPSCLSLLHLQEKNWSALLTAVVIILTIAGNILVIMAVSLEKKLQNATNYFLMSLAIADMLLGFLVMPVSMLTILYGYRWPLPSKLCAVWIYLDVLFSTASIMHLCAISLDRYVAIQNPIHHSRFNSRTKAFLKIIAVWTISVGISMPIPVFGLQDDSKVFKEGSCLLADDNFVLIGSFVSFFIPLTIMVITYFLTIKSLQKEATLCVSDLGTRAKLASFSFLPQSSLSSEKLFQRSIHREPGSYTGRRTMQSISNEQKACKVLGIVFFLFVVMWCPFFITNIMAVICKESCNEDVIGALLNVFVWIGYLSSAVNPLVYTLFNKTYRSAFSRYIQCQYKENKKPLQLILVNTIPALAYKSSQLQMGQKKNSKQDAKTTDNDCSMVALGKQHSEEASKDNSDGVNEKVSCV

[4] = molecular target: 5-hydroxytryptamine receptor 2B (Homo sapiens) (UniProt P41595); experiment: 5HT2B/H AG Eurofins SafetyScreen44 (BI); settings: filed as agonist, Compound concentration 10.0 uM
[5] = molecular target: Angiotensin-converting enzyme (Homo sapiens) (UniProt P12821); experiment: ACE(HU) Eurofins SafetyScreen44 (BI); settings: Compound concentration 10.0 uM
[6] = molecular target: Angiotensin-converting enzyme 2 (Homo sapiens) (UniProt Q9BYF1); experiment: ACE-2(HU) Eurofins SafetyScreen44 (BI); settings: Compound concentration 10.0 uM
Angiotensin-converting enzyme 2 (Homo sapiens), sequence (Q9BYF1 18-805 limits assumed): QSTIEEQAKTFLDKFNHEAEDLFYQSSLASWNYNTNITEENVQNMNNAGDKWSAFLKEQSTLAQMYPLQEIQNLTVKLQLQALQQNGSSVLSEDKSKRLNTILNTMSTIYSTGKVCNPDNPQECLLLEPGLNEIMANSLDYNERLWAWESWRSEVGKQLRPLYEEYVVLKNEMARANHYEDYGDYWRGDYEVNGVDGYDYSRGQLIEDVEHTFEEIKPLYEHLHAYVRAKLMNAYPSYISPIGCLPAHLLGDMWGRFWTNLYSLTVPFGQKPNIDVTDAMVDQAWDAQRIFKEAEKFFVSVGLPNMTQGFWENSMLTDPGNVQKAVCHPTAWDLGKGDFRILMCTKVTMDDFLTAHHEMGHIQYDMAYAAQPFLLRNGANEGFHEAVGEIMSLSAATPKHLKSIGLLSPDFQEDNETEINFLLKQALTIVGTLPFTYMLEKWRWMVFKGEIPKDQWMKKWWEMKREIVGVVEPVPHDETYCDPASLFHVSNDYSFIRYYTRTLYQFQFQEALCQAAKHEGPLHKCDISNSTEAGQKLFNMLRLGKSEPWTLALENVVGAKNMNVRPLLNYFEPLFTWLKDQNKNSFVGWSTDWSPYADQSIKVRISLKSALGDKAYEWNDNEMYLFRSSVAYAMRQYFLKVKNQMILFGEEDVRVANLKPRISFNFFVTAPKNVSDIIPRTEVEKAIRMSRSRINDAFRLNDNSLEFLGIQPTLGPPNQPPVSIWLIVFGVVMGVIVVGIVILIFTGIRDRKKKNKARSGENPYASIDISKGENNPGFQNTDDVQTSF

[7] = molecular target: Alpha-2A adrenergic receptor (Homo sapiens) (UniProt P08913); experiment: ALPHA2A/HU Eurofins SafetyScreen44 (BI); settings: Compound concentration 10.0 uM
[8] = molecular target: Beta-secretase 1 (Homo sapiens) (UniProt P56817); experiment: BACE-1 Eurofins SafetyScreen44 (BI); settings: Compound concentration 10.0 uM
[9] = molecular target: L-type calcium channel (dihydropyridine site), Cav1.2 alpha-1C (Rattus norvegicus, UniProt P22002); experiment: CA+/DHPSI/R Eurofins SafetyScreen44 (BI); set-up: mode of action inhibitor; settings: rat brain, probe [3H](+)PN200-110, compound concentration 10 uM, read-out: % Ctrl
Caspase-1 (Homo sapiens) = Caspase-1 (Homo sapiens) (UniProt P29466); experiment: CASPASE-1(H) Eurofins SafetyScreen44 (BI); settings: Compound concentration 10.0 uM
Caspase-8 (Homo sapiens) = Caspase-8 (Homo sapiens) (UniProt Q14790); experiment: CASPASE8_CE Eurofins SafetyScreen44 (BI); settings: Compound concentration 10.0 uM
[10] = molecular target: Cathepsin B (Homo sapiens) (UniProt P07858); experiment: CATHEPSB(H) Eurofins SafetyScreen44 (BI); settings: Compound concentration 10.0 uM
[11] = molecular target: Cathepsin E (Homo sapiens) (UniProt P14091); experiment: CATHEPSINE Eurofins SafetyScreen44 (BI); settings: Mus musculus; Compound concentration 10.0 uM
[12] = molecular target: Neutrophil elastase (Homo sapiens) (UniProt P08246); experiment: ELASTASE(H) Eurofins SafetyScreen44 (BI); settings: Compound concentration 10.0 uM
[13] = molecular target: Endothelin-1 receptor (Homo sapiens) (UniProt P25101); experiment: ETA/H Eurofins SafetyScreen44 (BI); settings: Compound concentration 10.0 uM
[14] = molecular target: Histamine H2 receptor (Homo sapiens) (UniProt P25021); experiment: H2/APT/HS Eurofins SafetyScreen44 (BI); settings: filed as antagonist, Compound concentration 10.0 uM
hERG (KCNH2) = hERG (KCNH2) (Homo sapiens, UniProt Q12809); experiment: HERG_DOFETILIDE Eurofins SafetyScreen44 (BI); set-up: mode of action inhibitor; settings: probe [3H] Dofetilide, compound concentration 10 uM, read-out: % Ctrl
hERG (KCNH2), sequence (Q12809 whole entry): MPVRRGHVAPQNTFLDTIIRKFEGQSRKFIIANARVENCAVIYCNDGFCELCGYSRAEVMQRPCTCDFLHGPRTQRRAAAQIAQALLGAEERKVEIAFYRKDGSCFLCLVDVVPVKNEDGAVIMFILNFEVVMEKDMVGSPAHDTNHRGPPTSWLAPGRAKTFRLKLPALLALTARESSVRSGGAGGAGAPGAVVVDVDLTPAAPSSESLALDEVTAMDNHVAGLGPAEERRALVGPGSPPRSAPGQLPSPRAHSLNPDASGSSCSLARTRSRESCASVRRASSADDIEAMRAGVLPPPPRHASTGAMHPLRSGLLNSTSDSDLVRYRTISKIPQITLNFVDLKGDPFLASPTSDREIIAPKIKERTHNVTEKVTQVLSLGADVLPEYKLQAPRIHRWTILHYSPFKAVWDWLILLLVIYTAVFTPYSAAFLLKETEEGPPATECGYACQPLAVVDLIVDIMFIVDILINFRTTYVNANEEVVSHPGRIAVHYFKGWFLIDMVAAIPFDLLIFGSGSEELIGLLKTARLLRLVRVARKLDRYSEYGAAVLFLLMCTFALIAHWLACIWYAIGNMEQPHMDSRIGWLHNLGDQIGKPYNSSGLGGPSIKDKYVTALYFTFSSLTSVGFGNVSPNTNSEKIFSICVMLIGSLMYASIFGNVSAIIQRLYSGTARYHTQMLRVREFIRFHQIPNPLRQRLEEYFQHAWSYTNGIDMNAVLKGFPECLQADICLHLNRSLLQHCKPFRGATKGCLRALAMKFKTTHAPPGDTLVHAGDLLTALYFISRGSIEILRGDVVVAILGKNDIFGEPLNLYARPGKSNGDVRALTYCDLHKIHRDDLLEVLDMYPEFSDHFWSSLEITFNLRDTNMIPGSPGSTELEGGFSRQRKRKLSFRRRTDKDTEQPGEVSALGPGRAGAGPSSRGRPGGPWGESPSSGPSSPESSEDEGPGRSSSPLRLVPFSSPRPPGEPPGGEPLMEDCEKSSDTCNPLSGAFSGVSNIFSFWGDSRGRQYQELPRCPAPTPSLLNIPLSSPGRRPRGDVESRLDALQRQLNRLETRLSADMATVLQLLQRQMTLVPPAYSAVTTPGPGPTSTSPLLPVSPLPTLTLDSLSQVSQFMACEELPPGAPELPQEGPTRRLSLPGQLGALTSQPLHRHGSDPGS

Rattus norvegicus [15] = organism: Rattus norvegicus; experiment: K+/VOLT/RA Eurofins SafetyScreen44 (BI); settings: Compound concentration 10.0 uM
[16] = molecular target: Tyrosine-protein kinase Lck (Homo sapiens) (UniProt P06239); experiment: LCK_CE Eurofins SafetyScreen44 (BI); settings: Compound concentration 10.0 uM
Tyrosine-protein kinase Lck (Homo sapiens), sequence (P06239 2-509 limits assumed): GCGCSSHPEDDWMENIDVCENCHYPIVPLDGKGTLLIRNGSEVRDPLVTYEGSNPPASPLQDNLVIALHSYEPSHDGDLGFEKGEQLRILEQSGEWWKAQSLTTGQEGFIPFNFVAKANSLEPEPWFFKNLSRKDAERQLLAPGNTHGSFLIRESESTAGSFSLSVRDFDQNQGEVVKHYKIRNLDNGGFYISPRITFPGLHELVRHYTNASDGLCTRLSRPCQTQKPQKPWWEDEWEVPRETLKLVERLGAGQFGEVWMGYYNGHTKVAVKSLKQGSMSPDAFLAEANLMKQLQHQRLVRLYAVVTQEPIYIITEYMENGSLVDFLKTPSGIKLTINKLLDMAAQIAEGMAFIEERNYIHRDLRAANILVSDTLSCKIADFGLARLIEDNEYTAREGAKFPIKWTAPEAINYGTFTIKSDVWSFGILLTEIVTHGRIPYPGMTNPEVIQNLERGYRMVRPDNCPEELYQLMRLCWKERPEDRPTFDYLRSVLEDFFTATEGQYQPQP

[17] = molecular target: Muscarinic acetylcholine receptor M1 (Homo sapiens) (UniProt P11229); experiment: M1/H Eurofins SafetyScreen44 (BI); settings: Compound concentration 10.0 uM
Muscarinic acetylcholine receptor M1 (Homo sapiens), sequence (P11229 whole entry): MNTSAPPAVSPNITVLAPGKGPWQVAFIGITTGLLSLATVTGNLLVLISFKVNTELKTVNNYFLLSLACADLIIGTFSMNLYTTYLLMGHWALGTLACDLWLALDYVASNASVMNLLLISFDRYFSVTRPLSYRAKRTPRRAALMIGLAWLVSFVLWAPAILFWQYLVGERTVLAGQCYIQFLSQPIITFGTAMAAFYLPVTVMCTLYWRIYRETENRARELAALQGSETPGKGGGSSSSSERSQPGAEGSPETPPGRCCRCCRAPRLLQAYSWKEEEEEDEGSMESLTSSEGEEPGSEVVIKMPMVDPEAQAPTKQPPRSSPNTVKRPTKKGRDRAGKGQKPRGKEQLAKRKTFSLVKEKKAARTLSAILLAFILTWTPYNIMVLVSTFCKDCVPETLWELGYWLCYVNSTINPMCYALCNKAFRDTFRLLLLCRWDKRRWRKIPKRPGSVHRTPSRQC

[18] = molecular target: Muscarinic acetylcholine receptor M2 (Homo sapiens) (UniProt P08172); experiment: M2/H Eurofins SafetyScreen44 (BI); settings: filed as antagonist, Compound concentration 10.0 uM
[19] = molecular target: Muscarinic acetylcholine receptor M3 (Homo sapiens) (UniProt P20309); experiment: M3/H Eurofins SafetyScreen44 (BI); settings: Compound concentration 10.0 uM
[20] = molecular target: Collagenase 3 (Homo sapiens) (UniProt P45452); experiment: MMP-13 (H) Eurofins SafetyScreen44 (BI); settings: Compound concentration 10.0 uM
[21] = molecular target: Matrilysin (Homo sapiens) (UniProt P09237); experiment: MMP-7 (H) Eurofins SafetyScreen44 (BI); settings: Compound concentration 10.0 uM
Matrilysin (Homo sapiens), sequence (P09237 whole entry): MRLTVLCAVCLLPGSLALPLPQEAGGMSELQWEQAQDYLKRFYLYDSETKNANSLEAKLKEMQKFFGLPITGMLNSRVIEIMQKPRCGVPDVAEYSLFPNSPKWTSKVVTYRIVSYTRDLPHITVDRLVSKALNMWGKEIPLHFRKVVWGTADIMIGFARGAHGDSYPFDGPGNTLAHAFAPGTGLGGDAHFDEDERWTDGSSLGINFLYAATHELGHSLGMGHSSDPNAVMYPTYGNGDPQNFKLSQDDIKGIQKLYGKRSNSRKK

[22] = molecular target: Neutrophil collagenase (Homo sapiens) (UniProt P22894); experiment: MMP-8(H) Eurofins SafetyScreen44 (BI); settings: Compound concentration 10.0 uM
Neutrophil collagenase (Homo sapiens), sequence (P22894 101-467 limits assumed): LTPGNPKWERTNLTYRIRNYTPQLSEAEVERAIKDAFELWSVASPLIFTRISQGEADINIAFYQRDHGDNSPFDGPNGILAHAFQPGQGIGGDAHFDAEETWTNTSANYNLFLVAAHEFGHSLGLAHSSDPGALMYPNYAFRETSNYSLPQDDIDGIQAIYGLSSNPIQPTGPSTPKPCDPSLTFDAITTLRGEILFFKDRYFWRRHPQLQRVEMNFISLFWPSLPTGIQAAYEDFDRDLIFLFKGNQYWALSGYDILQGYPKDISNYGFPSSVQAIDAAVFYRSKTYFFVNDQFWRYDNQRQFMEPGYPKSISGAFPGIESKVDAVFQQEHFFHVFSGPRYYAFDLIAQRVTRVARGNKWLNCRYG

[23] = molecular target: Interstitial collagenase (Homo sapiens) (UniProt P03956); experiment: MMP1 (H) Eurofins SafetyScreen44 (BI); settings: Compound concentration 10.0 uM
Rattus norvegicus [24] = organism: Rattus norvegicus; experiment: NA+/SITE2/R Eurofins SafetyScreen44 (BI); settings: Compound concentration 10.0 uM
[25] = molecular target: Sodium-dependent noradrenaline transporter (Homo sapiens) (UniProt P23975); experiment: NEUP/H Eurofins SafetyScreen44 (BI); settings: Compound concentration 10.0 uM
[26] = molecular target: Glutamate NMDA receptor (Rattus norvegicus) (UniProt P35439+Q00959+Q00960+Q00961+Q62645+Q8VHN2+Q9R1M7); experiment: NMDA/R Eurofins SafetyScreen44 (BI); assay type: protein-complex assay; settings: Compound concentration 10.0 uM
[27] = molecular target: Neuronal acetylcholine receptor; alpha4/beta2 (Homo sapiens) (UniProt P17787+P43681); experiment: N_NEURO_A4B2 Eurofins SafetyScreen44 (BI); assay type: protein-complex assay; settings: filed as agonist, Compound concentration 10.0 uM
[28] = molecular target: Proteinase-activated receptor 1 (Homo sapiens) (UniProt P25116); experiment: PAR1(H)ANTAG Eurofins SafetyScreen44 (BI); settings: filed as antagonist, Compound concentration 10.0 uM
[29] = molecular target: Vasopressin V1a receptor (Homo sapiens) (UniProt P37288); experiment: V1A/HUM Eurofins SafetyScreen44 (BI); settings: Compound concentration 10.0 uM
Vasopressin V1a receptor (Homo sapiens), sequence (P37288 whole entry, looked up): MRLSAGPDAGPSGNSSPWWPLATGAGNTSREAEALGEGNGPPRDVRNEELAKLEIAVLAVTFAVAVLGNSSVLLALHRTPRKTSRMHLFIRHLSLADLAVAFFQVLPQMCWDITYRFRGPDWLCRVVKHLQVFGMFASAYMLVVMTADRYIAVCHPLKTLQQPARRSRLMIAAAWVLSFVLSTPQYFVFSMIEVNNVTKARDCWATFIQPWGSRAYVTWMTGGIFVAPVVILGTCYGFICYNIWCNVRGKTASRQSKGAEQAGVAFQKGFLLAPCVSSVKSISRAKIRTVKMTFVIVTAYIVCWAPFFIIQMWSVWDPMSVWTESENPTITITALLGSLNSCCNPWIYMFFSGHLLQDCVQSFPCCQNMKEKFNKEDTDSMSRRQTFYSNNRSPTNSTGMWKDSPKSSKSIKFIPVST

[30] = molecular target: 5-hydroxytryptamine receptor 1A (Homo sapiens) (UniProt P08908); settings: Compound concentration 10.0 uM
[31] = molecular target: D(2) dopamine receptor (Homo sapiens) (UniProt P14416); settings: Compound concentration 10.0 uM
[32] = molecular target: D(4) dopamine receptor (Homo sapiens) (UniProt P21917); settings: Compound concentration 10.0 uM
D(4) dopamine receptor (Homo sapiens), sequence (P21917 whole entry): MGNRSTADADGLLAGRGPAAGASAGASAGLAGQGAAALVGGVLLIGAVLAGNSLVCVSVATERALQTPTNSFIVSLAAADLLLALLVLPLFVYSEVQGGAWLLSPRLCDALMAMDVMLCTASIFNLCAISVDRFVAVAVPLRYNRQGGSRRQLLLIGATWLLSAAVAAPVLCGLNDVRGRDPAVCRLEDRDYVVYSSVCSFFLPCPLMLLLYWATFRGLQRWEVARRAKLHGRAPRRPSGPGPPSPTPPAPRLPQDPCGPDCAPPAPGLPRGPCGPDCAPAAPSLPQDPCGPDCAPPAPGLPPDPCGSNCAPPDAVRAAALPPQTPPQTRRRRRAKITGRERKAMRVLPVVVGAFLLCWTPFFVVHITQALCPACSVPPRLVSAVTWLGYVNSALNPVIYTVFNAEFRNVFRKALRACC

[33] = molecular target: Sodium-dependent serotonin transporter (Homo sapiens) (UniProt P31645); settings: Compound concentration 10.0 uM
[34] = molecular target: GABA-A receptor; anion channel (Rattus norvegicus) (UniProt O09028+P15431+P18506+P18508+P19969+P20236+P23574+P23576+P28471+P28473+P30191+P62813+P63079+P63138+Q91ZM7+Q9ES14); settings: Compound concentration 10.0 uM
[35] = molecular target: Histamine H3 receptor (Homo sapiens) (UniProt Q9Y5N1); settings: Compound concentration 10.0 uM
[36] = molecular target: Histamine H4 receptor (Homo sapiens) (UniProt Q9H3N8); settings: Compound concentration 10.0 uM
[37] = molecular target: Alpha-2B adrenergic receptor (Homo sapiens) (UniProt P18089); settings: Compound concentration 10.0 uM
[38] = molecular target: Muscarinic acetylcholine receptor M1 (Homo sapiens) (UniProt P11229); settings: Compound concentration 10.0 uM
Rattus norvegicus [39] = organism: Rattus norvegicus; settings: Compound concentration 10.0 uM
Chymase (Homo sapiens) = Chymase (Homo sapiens) (UniProt P23946); settings: Compound concentration 10.0 uM

Q: For CC[C@H](CC(=O)O)n1c(=O)c2ncccc2n(Cc2cn(C)c3cc(C)cc(C)c23)c1=O [BI-1942], which Ki [1] is on record?
A: Its Ki is 1.13 µM.

Q: And the IC50 (Chymase)?
A: The IC50 was 0.198 µM (active).

Q: And the residual activity [2]?
A: The residual activity was 134%.

Q: What about the residual activity [3] of the same compound?
A: Its residual activity is 87%.

Q: And the residual activity [4]?
A: Its residual activity is 100%.

Q: What about the residual activity [5] of the same compound?
A: The residual activity was 127%.

Q: And the residual activity [6]?
A: Its residual activity is 127%.

Q: And the residual activity [7]?
A: Its residual activity is 90%.

Q: What about the residual activity [8] of the same compound?
A: The residual activity was 106%.

Q: What about the activity at 10 µM [9] of the same compound?
A: The activity at 10 µM was 108% (not active).

Q: And the residual activity (Caspase-1 (Homo sapiens))?
A: Its residual activity is 103%.

Q: What about the residual activity (Caspase-8 (Homo sapiens)) of the same compound?
A: The residual activity was 88%.

Q: And the residual activity [10]?
A: Its residual activity is 98%.

Q: And the residual activity [11]?
A: Its residual activity is 106%.

Q: What about the residual activity [12] of the same compound?
A: Its residual activity is 101%.

Q: What about the residual activity [13] of the same compound?
A: The residual activity was 106%.

Q: And the residual activity [14]?
A: The residual activity was 114%.

Q: What about the activity at 10 µM (hERG (KCNH2)) of the same compound?
A: Its activity at 10 µM is 105% (not active).

Q: And the residual activity (Rattus norvegicus [15])?
A: The residual activity was 104%.

Q: What about the residual activity [16] of the same compound?
A: Its residual activity is 103%.

Q: What about the residual activity [17] of the same compound?
A: Its residual activity is 112%.

Q: And the residual activity [18]?
A: Its residual activity is 104%.

Q: What about the residual activity [19] of the same compound?
A: Its residual activity is 98%.

Q: What about the residual activity [20] of the same compound?
A: The residual activity was 109%.

Q: What about the residual activity [21] of the same compound?
A: Its residual activity is 100%.

Q: And the residual activity [22]?
A: The residual activity was 107%.

Q: And the residual activity [23]?
A: Its residual activity is 97%.

Q: And the residual activity (Rattus norvegicus [24])?
A: Its residual activity is 97%.

Q: And the residual activity [25]?
A: The residual activity was 102%.

Q: What about the residual activity [26] of the same compound?
A: Its residual activity is 113%.

Q: What about the residual activity [27] of the same compound?
A: The residual activity was 103%.

Q: What about the residual activity [28] of the same compound?
A: Its residual activity is 120%.

Q: And the residual activity [29]?
A: Its residual activity is 101%.

Q: And the inhibition [30]?
A: Its inhibition is 8.83%.

Q: What about the inhibition [31] of the same compound?
A: Its inhibition is 0.91%.

Q: And the inhibition [32]?
A: Its inhibition is -1.4%.

Q: And the inhibition [33]?
A: Its inhibition is 4.96%.

Q: What about the inhibition [34] of the same compound?
A: Its inhibition is 6.86%.

Q: What about the inhibition [35] of the same compound?
A: The inhibition was 3.32%.

Q: And the inhibition [36]?
A: Its inhibition is -5.56%.

Q: And the inhibition [37]?
A: The inhibition was 0.56%.

Q: And the inhibition [38]?
A: The inhibition was 8.69%.

Q: And the inhibition (Rattus norvegicus [39])?
A: The inhibition was 12.2%.

Q: And the residual activity (Chymase (Homo sapiens))?
A: The residual activity was -1%.
